Values joined by “and” are separate entries in the source; they are usually repeats but may differ in a detail not shown here. Equal entries are not always repeated. Numbered stars: 1 amine (or outer) side, 2 acyl side, 3 side chain; on linkers, the order of the positions; unused ones are H or OH. Peptide text beside a SMILES is read from it. * marks the point of attachment. Suc = O=C(CCC(=O)[*:2])[*:1]; Pyrrolidide = C1CCN(*)C1; NHiPr = CC(C)N*
target: T1, HSV-1 ribonucleotide reductase (Human herpesvirus 1, UniProt P08543); experiment: biochemical; conditions: IC50, concentration producing 50% of the maximal inhibition of enzyme activity; partially purified enzyme; mean of four assays
T1 construct: HSV-1 ribonucleotide reductase (partially purified) was obtained from quiescent BHK-21/C13 cells infected with strain F HSV-1 virus; made in house; host or cells: quiescent BHK-21/C13 cells infected with HSV-1 strain F (10 pfu/cell); partially purified
Excerpt: HSV-1 ribonucleotide reductase (partially purified) was obtained from quiescent BHK-21/C13 cells infected with strain F HSV-1 virus at 10 plaque forming units/cell as described by E. A. Cohen et at., J. Gem Virol., 66, 733 (1985).
By following the procedure described by P. Gaudreau et at., J. Biol, Chem., 262, 12413 (1987), the assay results listed in the following table were obtained. The assay result for each exemplified compound of formula 1 is expressed as the concentration of the compound producing 50% of the maximal inhibition (IC50) of enzyme activity. The number of units of the enzyme preparation used in each assay was constant, based on the specific activity of the enzyme preparation. The results are relative to the activity obtained in control experiments without the test compound and represent the mean of four assays that varied less than 10% with each other.

T1 sequence (P08543 whole entry): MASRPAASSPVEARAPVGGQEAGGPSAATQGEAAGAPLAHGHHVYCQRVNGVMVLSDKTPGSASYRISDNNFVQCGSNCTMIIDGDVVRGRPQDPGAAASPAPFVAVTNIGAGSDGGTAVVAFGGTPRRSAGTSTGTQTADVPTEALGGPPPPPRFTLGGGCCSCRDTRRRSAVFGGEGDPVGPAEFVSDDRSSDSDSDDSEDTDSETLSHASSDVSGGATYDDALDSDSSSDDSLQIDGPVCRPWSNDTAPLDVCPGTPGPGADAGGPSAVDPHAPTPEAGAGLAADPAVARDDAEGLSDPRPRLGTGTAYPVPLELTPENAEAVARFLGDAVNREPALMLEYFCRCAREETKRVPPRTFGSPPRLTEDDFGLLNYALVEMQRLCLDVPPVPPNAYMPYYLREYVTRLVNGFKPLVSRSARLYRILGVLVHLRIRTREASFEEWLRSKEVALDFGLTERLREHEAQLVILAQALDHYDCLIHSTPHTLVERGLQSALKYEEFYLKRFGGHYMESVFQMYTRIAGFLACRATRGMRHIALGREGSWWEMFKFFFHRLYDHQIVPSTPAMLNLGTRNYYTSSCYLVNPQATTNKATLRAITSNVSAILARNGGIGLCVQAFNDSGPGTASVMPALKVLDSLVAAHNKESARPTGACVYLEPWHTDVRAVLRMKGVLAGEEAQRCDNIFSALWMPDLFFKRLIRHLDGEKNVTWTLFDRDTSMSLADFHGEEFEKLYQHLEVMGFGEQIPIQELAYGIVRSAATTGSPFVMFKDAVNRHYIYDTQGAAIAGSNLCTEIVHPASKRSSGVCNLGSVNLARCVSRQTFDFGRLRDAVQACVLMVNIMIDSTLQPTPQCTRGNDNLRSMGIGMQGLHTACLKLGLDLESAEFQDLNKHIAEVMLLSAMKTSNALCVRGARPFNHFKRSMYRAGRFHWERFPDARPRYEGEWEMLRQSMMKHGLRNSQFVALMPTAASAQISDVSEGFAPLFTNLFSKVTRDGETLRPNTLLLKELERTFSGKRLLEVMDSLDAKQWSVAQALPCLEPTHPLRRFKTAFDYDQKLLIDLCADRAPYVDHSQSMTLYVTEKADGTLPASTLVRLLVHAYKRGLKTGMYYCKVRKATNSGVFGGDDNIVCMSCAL

Compound	IC50
CC(C)CNC(=O)CCC(=O)N[C@@H](CC(=O)N1CCCC1)C(=O)N[C@@H](CC(=O)O)C(=O)N[C@@H](CC(C)C)C(=O)O [Me2 CHCH2 NHCOCH2 CH2 CO-Asp(pyrrolidino)-Asp-Leu-OH]	75 µM
CCC(CC)NC(=O)CCC(=O)N[C@@H](CC(=O)N1CCC1)C(=O)N[C@@H](CC(=O)O)C(=O)N[C@@H](CC(C)C)C(=O)O [Et2 CHNHCOCH2 CH2 CO-Asp(azetidino)-Asp-Leu-OH]	9.1 µM
CCC(CC)NC(=O)CCC(=O)N(C)[C@@H](CC(=O)N1CCCC1)C(=O)N[C@@H](CC(=O)O)C(=O)N[C@@H](CC(C)C)C(=O)O [Et2 CHNHCOCH2 CH2 CO-(N-Me)-Asp(pyrrolidino)-Asp-Leu-OH]	2 µM
CCC(CC)NC(=O)CCC(=O)N[C@@H](CC(=O)N1CCC(C)CC(C)(C)C1)C(=O)N[C@@H](CC(=O)O)C(=O)N[C@@H](CC(C)C)C(=O)O (stereo partly drawn) [Et2 CHNHCOCH2 CH2 CO-Asp(3,3,5-trimethylhexahydroazepino)-Asp-Leu-OH]	12 µM
CCC(CC)NC(=O)CCC(=O)N[C@@H](CC(=O)N(C)CCOC(C)=O)C(=O)N[C@@H](CC(=O)O)C(=O)N[C@@H](CC(C)C)C(=O)O [Et2 CHNHCOCH2 CH 2 CO-Asp[N(CH3)CH2-CH2 OCOCH3 ]-Asp-Leu-OH]	9.9 µM
CCC(CC)NC(=O)c1ccccc1C(=O)N[C@@H](CC(=O)N1CCCC1)C(=O)N[C@@H](CC(=O)O)C(=O)N[C@@H](CC(C)C)C(=O)O [Et2 CHNHCO-(1,2-phenylene)-CO-Asp(pyrrolidino)-Asp-Leu-OH]	6.5 µM
CCC(CC)NC(=O)CCC(=O)N[C@@H](CC(=O)N1CCCC1)C(=O)N[C@H](C(=O)N[C@H](CO)CC(C)C)C1(C(=O)O)CCC1 [Et2 CHNHCOCH2 CH2,CO-Asp(pyrrolidino)-Asp(cyBu)-(L-leucinol)]	5 µM
CCC(CC)NC(=O)CCC(=O)N[C@@H](CC(=O)N1CCCC1)C(=O)N[C@@H](CC(=O)O)C(=O)N[C@@H](CC(C)C)C(=O)O [Title Compound of Example 10, Et2 CHNHCOCH2 CH2 CO--Asp(pyrrolidiono)--Asp-Leu--OH]	2.9 µM
CCCCCCCCN(C)C(=O)C[C@H](NC(=O)CCC(=O)NC(CC)CC)C(=O)N[C@H](C(=O)N[C@@H](CC(C)C)C(=O)O)C1(C(=O)O)CCCC1 [Et2 CHNHCOCH2 CH2 CO-Asp(N-Me-N-octyl)-Asp(cyPn)-Leu-OH]	0.73 µM
CCC(CC)NC(=O)C[C@H](C(=O)N[C@@H](CC(=O)N1CCCC1)C(=O)N[C@H](C(=O)N[C@@H](CC(C)(C)C)C(=O)O)C1(C(=O)O)CCCC1)C(C)(C)C [Title Compound of Example 11, Et2 CHNH--COCH2 CH[(S)-C(CH3)3]CO--Asp(pyrrolidino)--Asp(cyPn)-γMeLeu--OH]	0.17 µM
CCC(CC)NC(=O)CCC(=O)N[C@@H](CC(=O)N1CCCC1)C(=O)N[C@H](C(=O)NCCC(C)(C)C)C(C)(C)C(=O)O [Et2 CHNHCOCH2 CH2 CO-Asp(pyrrolidino)-Asp(diMe)-NH[CH2 CH2 C(CH3)3 ]]	75 µM
CC(C)C[C@H](NC(=O)[C@H](CC(=O)O)NC(=O)[C@H](CC(=O)N1CCCC1)NC(=O)CCC(=O)NC1CCCCC1)C(=O)O [Cyclohexylamino-COCH2 CH2 CO-Asp(pyrrolidino)-Asp-Leu-OH]	22 µM
CCCCCCCC(=O)C[C@H](NC(=O)CCC(=O)NC(CC)CC)C(=O)N[C@@H](CC(=O)O)C(=O)N[C@@H](CC(C)C)C(=O)O [Et2 CHNHCOCH2 CH2 CO-NHCH-(2-oxononyl)-CO-Asp-Leu-OH]	9 µM
CCC(CC)NC(=O)/C=C\C(=O)N[C@@H](CC(=O)N1CCCC1)C(=O)N[C@@H](CC(=O)O)C(=O)N[C@@H](CC(C)C)C(=O)O [Et2 CHNHCO-(cis-CH=CH)-CO-Asp(pyrrolidino)-Asp-Leu-OH]	21 µM
CCC(CC)NC(=O)CCC(=O)N[C@@H](CC(=O)N(C)CCO)C(=O)N[C@@H](CC(=O)O)C(=O)N[C@@H](CC(C)C)C(=O)O [Et2 CHNHCOCH2 CH2 CO-Asp[N(CH3)CH2-CH2 OH]-Asp-Leu-OH]	11 µM
CCCCCC[C@H](C)OC(=O)C[C@H](NC(=O)CCC(=O)NC(CC)CC)C(=O)N[C@H](C(=O)N[C@@H](CC(C)C)C(=O)O)C1(C(=O)O)CCC1 [Et2 CHNHCOCH2 CH2 CO-Asp[1(S)-methylheptyloxy]-Asp(cyBu)-Leu-OH]	4.4 µM
CCC(CC)NC(=O)CCC(=O)N[C@@H](CC(=O)OCCCCCl)C(=O)N[C@@H](CC(=O)O)C(=O)N[C@@H](CC(C)C)C(=O)O [Et2 CHNHCOCH2 CH2 CO-Asp(4-chloro-butyloxy)-Asp-Leu-OH]	20 µM
CCC(CC)NC(=O)CCC(=O)N[C@@H](CC(=O)OC1CCCCC1)C(=O)N[C@@H](CC(=O)O)C(=O)N[C@@H](CC(C)C)C(=O)O [Et2 CHNHCOCH2 CH2 CO-Asp(cyclohexyloxy)-Asp-Leu-OH]	75 µM
CC(C)C[C@H](NC(=O)[C@H](CC(=O)O)NC(=O)[C@H](CC(=O)N1CCCC1)NC(=O)CCC(=O)NC(C)C)C(=O)O [Me2 CHNHCOCH2 CH2 CO-Asp(pyrrolidino)-Asp-Leu-OH] ({NHiPr-Suc}-Asp(Pyrrolidide)-Asp-Leu-OH)	18 µM
CCC(CC)NC(=O)C1CCCCC1C(=O)N[C@@H](CC(=O)N1CCCC1)C(=O)N[C@@H](CC(=O)O)C(=O)N[C@@H](CC(C)C)C(=O)O (stereo partly drawn) [Et2 CHNHCO-(cis-1,2-cyclohexanediyl)-CO-Asp(pyrrolidino)-Asp-Leu-OH]	3.7 µM and 2.21 µM
CCC(CC)NC(=O)CCC(=O)N[C@@H](CC(=O)C1CCCC1)C(=O)N[C@@H](CC(=O)O)C(=O)N[C@@H](CC(C)C)C(=O)O [Et2 CHNHCOCH2 CH2 CO-NHCH-(2-cyclopentyl-2-oxoethyl)-CO-Asp-Leu-OH]	3.4 µM
